Test systems include SF-295 CNS; NCI-H522 lung; SK-OV-3 ovarian; U251 CNS; IGROV1 ovarian; MDA-MB-231 breast; HCC-2998 colon; COLO 205 colon; TK-10 renal; MDA-MB-435.
Common to all, as to experiment: NCI anticancer screen, dose series, 48 h

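Protocol summary: plate cells (96-well), add compound at 5 concentrations, incubate 48 h, interpolate endpoints linearly. The concentration for 50% growth inhibition is given as GI50. Definition used: TGI = concentration required for complete inhibition of growth.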 Some results are limits rather than exact numbers.

As to `O=C(CSc1ncc(-c2ccccc2)n1-c1ccccc1)Nc1ccc(-c2nc3ccccc3s2)cc1`, the GI50 in the assay on SF-295 CNS was 3.53 µM; with NCI-H522 lung, 8.11 µM; in the assay on SK-OV-3 ovarian, 55.7 µM; in the assay on U251 CNS, 2.42 µM; in the assay on IGROV1 ovarian, 2.72 µM; in the assay with MDA-MB-231 breast, 21.4 µM. The GI50 with HCC-2998 colon is greater than 100 µM; in the assay with COLO 205 colon, greater than 100 µM; in the assay on TK-10 renal, 34.4 µM. Moreover, the TGI is greater than 100 µM in the assay on SF-295 CNS; greater than 100 µM in the assay with NCI-H522 lung; greater than 100 µM in the assay with SK-OV-3 ovarian; 5.56 µM in the assay on U251 CNS; greater than 100 µM with IGROV1 ovarian; greater than 100 µM with MDA-MB-231 breast. Also, the TGI with HCC-2998 colon, in the assay on COLO 205 colon and in the assay with TK-10 renal was greater than 100 µM each time.
For `COC(=O)C1=C(\O)C[C@@]2(C)CC[C@@H](C(=O)OC)C2C/C=C\1C(=O)OC` (stereo not given in full), the TGI in the assay on SF-295 CNS, with NCI-H522 lung, in the assay with SK-OV-3 ovarian, in the assay on U251 CNS, with IGROV1 ovarian and with HCC-2998 colon was greater than 100 µM in each case. Besides, the TGI in the assay on COLO 205 colon and with TK-10 renal was greater than 100 µM each time.
Consider `O=C(NC1C(=O)NNC1c1ccccc1Cl)c1ccccc1` (stereo not given), for which the TGI in the assay with SF-295 CNS, in the assay on NCI-H522 lung, with SK-OV-3 ovarian, in the assay on U251 CNS, in the assay on IGROV1 ovarian and in the assay with HCC-2998 colon was greater than 100 µM throughout. The TGI in the assay on COLO 205 colon and in the assay on TK-10 renal was greater than 100 µM throughout.
In the case of `CCCCC(C(=O)CCC(=O)Nc1ccc(Cl)cc1)C(=O)C(C)C` (stereo not given), the TGI in the assay on SF-295 CNS, in the assay with NCI-H522 lung, with SK-OV-3 ovarian, in the assay on U251 CNS, with IGROV1 ovarian and in the assay with HCC-2998 colon was greater than 100 µM in each case. For the same molecule, the TGI in the assay with COLO 205 colon and with TK-10 renal was greater than 100 µM in each case.
For the molecule `COc1c(C)c(O)c2c(c1C)OC(c1ccccc1)CC2=O` (stereo not given), the TGI with SF-295 CNS, in the assay on NCI-H522 lung, in the assay on SK-OV-3 ovarian, in the assay with U251 CNS, in the assay with IGROV1 ovarian and with HCC-2998 colon was greater than 100 µM each time. In the assay with TK-10 renal, this molecule yielded a TGI greater than 100 µM.
With `O=C(O)c1cn(C2CC2)c2cc(N3CCN(Cc4ccc5ccccc5c4O)CC3)c(F)cc2c1=O`, the GI50 in the assay on MDA-MB-435 is 3.12 µM; in the assay on SF-295 CNS, 4.29 µM; in the assay on SK-OV-3 ovarian, 3.68 µM; with U251 CNS it was 4.87 µM; in the assay with IGROV1 ovarian, 4.91 µM; in the assay with MDA-MB-231 breast, 3.41 µM. The GI50 with COLO 205 colon is 3.27 µM. For the same molecule, the TGI in the assay with MDA-MB-435, with SF-295 CNS, in the assay with SK-OV-3 ovarian, in the assay on U251 CNS, in the assay with IGROV1 ovarian and in the assay on MDA-MB-231 breast was greater than 100 µM throughout. Moreover, the TGI in the assay on COLO 205 colon is greater than 100 µM.
For the molecule `Nc1nc2ncn(CC(O)COC(=O)c3ccccc3)c2c(=O)[nH]1` (stereo not given), the TGI in the assay on SF-295 CNS, with NCI-H522 lung, with SK-OV-3 ovarian, with U251 CNS, in the assay on IGROV1 ovarian and in the assay on COLO 205 colon was greater than 100 µM each time. The TGI with TK-10 renal is greater than 100 µM.
Take `CC1CC(c2ccc(Cl)c(Cl)c2)=Nc2ccccc2S1` (stereo not given): the TGI in the assay on SF-295 CNS, with NCI-H522 lung, in the assay with SK-OV-3 ovarian, with U251 CNS, in the assay with IGROV1 ovarian and in the assay with HCC-2998 colon was greater than 100 µM throughout. Moreover, the TGI in the assay on COLO 205 colon and with TK-10 renal was greater than 100 µM in each case.
In the case of `Cc1ccc(S(=O)(=O)CC2(Br)CCc3ccccc3C2=O)cc1` (stereo not given), the TGI with MDA-MB-435 is 40.3 µM; with SF-295 CNS it was greater than 100 µM; in the assay with NCI-H522 lung, 32.7 µM; in the assay on SK-OV-3 ovarian, greater than 100 µM; in the assay with U251 CNS, 46.8 µM; in the assay on IGROV1 ovarian it was 41 µM. In addition, the results for the TGI in the assay on MDA-MB-231 breast, with COLO 205 colon and in the assay on TK-10 renal were 84.9 µM, 43.6 µM and 85.7 µM, respectively.
For the molecule `Cc1[nH]n(-c2cccc(Cl)c2)c(=O)c1/C=C1\C=c2ccccc2=CC1=O`, the GI50 with MDA-MB-435 was greater than 100 µM; in the assay on SF-295 CNS, 23.2 µM; with NCI-H522 lung, greater than 100 µM; in the assay with SK-OV-3 ovarian it was 26.5 µM; with U251 CNS, 40.7 µM; in the assay with IGROV1 ovarian, 27.1 µM. The GI50 is 36.1 µM with MDA-MB-231 breast, greater than 100 µM in the assay with COLO 205 colon and 35 µM with TK-10 renal. For the same molecule, the TGI in the assay with MDA-MB-435, in the assay on SF-295 CNS, in the assay with NCI-H522 lung, in the assay on SK-OV-3 ovarian, in the assay with U251 CNS and in the assay with IGROV1 ovarian was greater than 100 µM throughout. For the same molecule, the TGI in the assay on MDA-MB-231 breast, in the assay with COLO 205 colon and in the assay with TK-10 renal was greater than 100 µM each time.
Consider `c1cc2c(c(NC3=NCCN3)c1)CCCC2`, for which the TGI with MDA-MB-435, in the assay with SF-295 CNS, with NCI-H522 lung, in the assay with SK-OV-3 ovarian, in the assay on U251 CNS and with IGROV1 ovarian was greater than 100 µM in each case. The TGI in the assay on MDA-MB-231 breast, in the assay on COLO 205 colon and with TK-10 renal was greater than 100 µM throughout.
In the case of `COC(=O)/C(=N/NC(C)(C)C)C(C(=O)OC)C(=O)C(=O)Nc1nc2ccc([N+](=O)[O-])cc2s1` (stereo not given), the TGI with SF-295 CNS, in the assay with NCI-H522 lung, in the assay with SK-OV-3 ovarian, in the assay with U251 CNS, in the assay on IGROV1 ovarian and in the assay on HCC-2998 colon was greater than 100 µM in each case. The TGI in the assay with COLO 205 colon and in the assay with TK-10 renal was greater than 100 µM each time.
In the case of `CN1CCc2cc3c4cc2C1Cc1ccc(cc1)Oc1cc(ccc1O)CC1c2c(cc(O)c(c2O4)O3)CCN1C` (stereo not given), the TGI was determined as 3.11 µM with SF-295 CNS; 11.1 µM with NCI-H522 lung; 9 µM with SK-OV-3 ovarian; 3.16 µM with U251 CNS; 14.3 µM with IGROV1 ovarian; 4.11 µM in the assay with HCC-2998 colon. Moreover, the TGI was 21.9 µM in the assay on COLO 205 colon and 31 µM in the assay with TK-10 renal.

Values taken from PubChem BioAssay (NCI).
